Experimental findings from patent publication US8673966B2, “ALDH-2 inhibitors in the treatment of addiction” (Gilead Sciences, Inc., priority 2011, dated 2014) are described below.

Several values for one entry are separate records, joined by “and”; a condition that tells them apart may be missing. Identical values can stand only once. A value given as a limit tells only on which side of the number the result lay.

What all share (assay type): biochemical
For assay [1], the target named is hMAO-A (Homo sapiens (Human), UniProt P21397). The assay can be described thus: MAO-A assay (luminogenic MAO substrate). As to conditions: microsome contained MAO-A, 160 uM substrate, 20 min pre-incubation; unit inferred. How it is done:
(§1) MAO assays included luminogenic MAO substrate, reaction buffers, Luciferin Detection and the reconstitution buffer with esterase. Standard MAO reaction mixtures included microsome contained MAO-A (2 ug) or MAO-B (10 ug), 160 uM substrate for MAO-A or 16 uM substrate for MAO-B, MAO-A buffer (100 mM Hepes buffer, pH 7.5, 5% glycerol) or MAO-B buffer (100 mM Hepes, pH 7.5, 5% glycerol, 10% dimethyl sulfoxide) in a final volume of 30 ul. After 20 minutes of pre-incubation of the enzyme with compounds, the reaction was initiated by adding enzyme substrate and the reaction was allowed to proceed for 60 minutes. Reconstituted Luciferin Detection Reagent (30 ul) was then added is added to simultaneously stop the MAO reaction and convert the methyl ester derivative to luciferin and produce light. The amount of light produced is directly proportional to the activity of MAO. The mixtures were further incubated for 20 minutes and activity of the enzyme was determined using Perkin-Elmer Envision Reader.
(§2) Note: IC50 refers to the concentration of a compound that inhibits a reaction by 50%. In the case of competitive inhibition, IC50=2Ki when the substrate is present at the Km concentration, as per the relationship: Ki=IC50/[1+(substrate concentration/Km)].

For assay [2], the target named is hMAO-B (Homo sapiens (Human), UniProt P27338). The assay can be described thus: MAO-B assay (luminogenic MAO substrate). The following applies: microsome contained MAO-B, 16 uM substrate, 20 min pre-incubation; unit inferred. How it is done:
as §1, §2

In assay [3] the target is recombinant human ALDH2 (Homo sapiens (Human), UniProt P05091). The assay can be described thus: ALDH2 assay (NADH formation). As to conditions: 10 nM recombinant human ALDH2, 150 uM formaldehyde, 60 min pre-incubation; read-out: IC50 hALDH2. The procedure: Standard ALDH2 reaction mixtures contained 150 uM formaldehyde, 2.5 mM NAD^+, 10 mM MgCl2 and 10 nM recombinant human ALDH2 in 50 mM Hepes buffer, pH 7.4, 0.01% Tween 20 in a final volume of 50 ul using 384-well plates. After 60 min of pre-incubation of compound with ALDH2 and formaldehyde, the reaction was started by adding NAD+ and the reaction mixture was allowed to proceed for 90 minutes. Activity of the enzyme was determined by monitoring NADH formation using Perkin-Elmer Envision Reader with excitation and emission wavelengths set at 340 and 460 nm, respectively.
recombinant human ALDH2, sequence (P05091 18-517): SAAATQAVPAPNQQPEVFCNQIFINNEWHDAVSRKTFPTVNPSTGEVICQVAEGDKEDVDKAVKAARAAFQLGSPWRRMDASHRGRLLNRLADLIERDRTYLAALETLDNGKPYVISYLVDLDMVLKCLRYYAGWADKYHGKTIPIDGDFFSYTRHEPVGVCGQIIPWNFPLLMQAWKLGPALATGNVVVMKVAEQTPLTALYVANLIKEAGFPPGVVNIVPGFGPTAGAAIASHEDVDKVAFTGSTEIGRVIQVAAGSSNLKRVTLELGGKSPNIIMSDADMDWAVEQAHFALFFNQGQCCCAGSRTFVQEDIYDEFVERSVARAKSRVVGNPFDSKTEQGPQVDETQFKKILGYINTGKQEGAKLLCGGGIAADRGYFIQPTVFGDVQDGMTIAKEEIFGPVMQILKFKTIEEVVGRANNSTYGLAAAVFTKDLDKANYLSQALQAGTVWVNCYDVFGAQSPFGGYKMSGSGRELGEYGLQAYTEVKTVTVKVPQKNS
as §2

hMAO-A, sequence (P21397 whole entry): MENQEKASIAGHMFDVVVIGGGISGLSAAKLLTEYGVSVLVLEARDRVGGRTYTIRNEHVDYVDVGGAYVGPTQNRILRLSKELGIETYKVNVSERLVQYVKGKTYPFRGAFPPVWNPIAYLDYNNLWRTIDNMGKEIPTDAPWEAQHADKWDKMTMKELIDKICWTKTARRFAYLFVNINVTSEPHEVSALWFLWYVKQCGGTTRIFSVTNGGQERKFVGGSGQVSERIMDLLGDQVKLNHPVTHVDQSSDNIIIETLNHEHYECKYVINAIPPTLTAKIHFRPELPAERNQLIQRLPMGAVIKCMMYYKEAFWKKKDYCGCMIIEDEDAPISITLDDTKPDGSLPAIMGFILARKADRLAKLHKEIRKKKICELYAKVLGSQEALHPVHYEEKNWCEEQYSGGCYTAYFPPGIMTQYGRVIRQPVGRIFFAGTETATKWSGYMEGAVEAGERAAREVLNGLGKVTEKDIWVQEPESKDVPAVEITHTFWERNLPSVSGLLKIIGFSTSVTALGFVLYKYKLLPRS
hMAO-B, sequence (P27338 whole entry): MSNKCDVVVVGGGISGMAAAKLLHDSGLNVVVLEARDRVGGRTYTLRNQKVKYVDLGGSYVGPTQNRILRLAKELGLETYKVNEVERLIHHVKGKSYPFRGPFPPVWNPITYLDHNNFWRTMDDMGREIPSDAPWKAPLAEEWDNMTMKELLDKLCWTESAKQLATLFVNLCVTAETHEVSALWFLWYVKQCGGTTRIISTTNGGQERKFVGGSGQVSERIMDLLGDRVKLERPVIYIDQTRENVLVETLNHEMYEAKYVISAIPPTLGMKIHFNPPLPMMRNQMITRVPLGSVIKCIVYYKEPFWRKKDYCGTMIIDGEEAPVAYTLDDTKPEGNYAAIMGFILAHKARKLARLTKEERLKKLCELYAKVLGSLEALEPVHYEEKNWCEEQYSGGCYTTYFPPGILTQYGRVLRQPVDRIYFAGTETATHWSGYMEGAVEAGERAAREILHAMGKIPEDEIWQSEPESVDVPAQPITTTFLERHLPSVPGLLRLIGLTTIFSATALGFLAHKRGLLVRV

For orientation: IC50 means the point on the concentration scale where inhibition reaches its midpoint. As to `CS(=O)(=O)Nc1ccc(-c2coc3cc(C#CC4CC4)ccc3c2=O)cc1` [N-(4-(7-(cyclopropylethynyl)-4-oxo-4H-chromen-3-yl)phenyl)methanesulfonamide], the IC50 is greater than 13000 nM in assay [1], greater than 13000 nM in assay [2] and 57.7 nM in assay [3].
As for `CS(=O)(=O)Nc1ccc(-c2coc3cc(C#CC4CN(C(=O)OC5CCCC5)C4)ccc3c2=O)cc1` [cyclopentyl-3-((3-(4-(methylsulfonamido)phenyl)-4-oxo-4H-chromen-7-yl)ethynyl)azetidine-1-carboxylate], the IC50 in assay [1] is greater than 130000 nM; in assay [2] it was greater than 130000 nM; in assay [3], 9 nM.
`CS(=O)(=O)Nc1ccc(-c2coc3cc(C#CC4(O)CCCCC4)ccc3c2=O)cc1` [N-(4-(7-((1-hydroxycyclohexyl)ethynyl)-4-oxo-4H-chromen-3-yl)phenyl)methanesulfonamide]: the IC50 in assay [1] is greater than 130000 nM; in assay [2], greater than 130000 nM; in assay [3] it was 1710 nM.
For `CS(=O)(=O)Nc1ccc(-c2coc3cc(C#Cc4cncnc4)ccc3c2=O)cc1` [N-(4-(4-oxo-7-(pyrimidin-5-ylethynyl)-4H-chromen-3-yl)phenyl)methanesulfonamide], the IC50 in assay [1] is greater than 130000 nM; in assay [2], 114000 nM; in assay [3], 57 nM.
In the case of `COCCC(=O)N1CC(C#Cc2ccc3c(=O)c(-c4ccc(NS(C)(=O)=O)cc4)coc3c2)C1` [N-(4-(7-((1-(3-methoxypropanoyl)azetidin-3-yl)ethynyl)-4-oxo-4H-chromen-3-yl)phenyl)methanesulfonamide], the IC50 in assay [1] is greater than 130000 nM; in assay [2], greater than 130000 nM; in assay [3] it was 8 nM.
Regarding `Cn1cncc1C#Cc1ccc2c(=O)c(-c3ccc(NS(C)(=O)=O)cc3)coc2c1` [N-(4-(7-((1-methyl-1H-imidazol-5-yl)ethynyl)-4-oxo-4H-chromen-3-yl)phenyl)methanesulfonamide], the values for the IC50 in assay [1], in assay [2] and in assay [3] were greater than 130000 nM, 365 nM and less than 4.9 nM, respectively.
As for `CS(=O)(=O)Nc1ccc(-c2coc3cc(C#CC4CN(C(=O)CO)C4)ccc3c2=O)cc1` [N-(4-(7-((1-(2-hydroxyacetyl)azetidin-3-yl)ethynyl)-4-oxo-4H-chromen-3-yl)phenyl)methanesulfonamide], the figures for the IC50 in assay [1], in assay [2] and in assay [3] were greater than 130000 nM, greater than 130000 nM and 15 nM, respectively.
As for `CC(C)(O)C(=O)N1CC(C#Cc2ccc3c(=O)c(-c4ccc(NS(C)(=O)=O)cc4)coc3c2)C1` [N-(4-(7-((1-(2-hydroxy-2-methylpropanoyl)-azetidin-3-yl)ethynyl)-4-oxo-4H-chromen-3-yl)phenyl)methanesulfonamide], the IC50 was greater than 130000 nM in assay [1], greater than 130000 nM in assay [2] and 16 nM in assay [3].
Consider `CC(O)C(=O)N1CC(C#Cc2ccc3c(=O)c(-c4ccc(NS(C)(=O)=O)cc4)coc3c2)C1` (stereo not drawn) [N-(4-(7-((1-(2-hydroxypropanoyl)azetidin-3-yl)ethynyl)-4-oxo-4H-chromen-3-yl)phenyl)methanesulfonamide], for which the IC50 is greater than 130000 nM in assay [1], greater than 130000 nM in assay [2] and 15 nM in assay [3].
In the case of `CC(C)(C)OC(=O)NC1(C(=O)N2CC(C#Cc3ccc4c(=O)c(-c5ccc(NS(C)(=O)=O)cc5)coc4c3)C2)CC1` [tert-butyl 1-(3-((3-(4-(methylsulfonamido)phenyl)-4-oxo-4H-chromen-7-yl)ethynyl)azetidine-1-carbonyl)cyclopropylcarbamate], the results for the IC50 in assay [1], in assay [2] and in assay [3] were 110000 nM, greater than 130000 nM and 5 nM, respectively.
Regarding `CS(=O)(=O)Nc1ccc(-c2coc3cc(C#CC4CN(C(=O)C5CC(F)(F)C5)C4)ccc3c2=O)cc1` [N-(4-(7-((1-(3,3-difluorocyclobutanecarbonyl)azetidin-3-yl)ethynyl)-4-oxo-4H-chromen-3-yl)phenyl)methanesulfonamide], the IC50 in assay [1] is greater than 130000 nM; in assay [2], greater than 130000 nM; in assay [3], 6 nM.
For the molecule `CS(=O)(=O)Nc1ccc(-c2coc3cc(C#CC4CCN(C(=O)C5CC5)CC4)ccc3c2=O)cc1` [N-(4-(7-((1-(cyclopropanecarbonyl)piperidin-4-yl)ethynyl)-4-oxo-4H-chromen-3-yl)phenyl)methanesulfonamide], the IC50 was greater than 130000 nM in assay [1], greater than 130000 nM in assay [2] and 6.5 nM in assay [3].
Take `CN(C(=O)OC(C)(C)C)C1(C(=O)N2CC(C#Cc3ccc4c(=O)c(-c5ccc(NS(C)(=O)=O)cc5)coc4c3)C2)CC1` [tert-butyl (1-(3-((3-(4-(methylsulfonamido)-phenyl)-4-oxo-4H-chromen-7-yl)ethynyl)azetidine-1-carbonyl)cyclopropyl)-methylcarbamate]: the IC50 in assay [1] was greater than 130000 nM; in assay [2] it was greater than 130000 nM; in assay [3] it was 2.3 nM.
On to `CC(C)(C)OC(=O)NC1(C(=O)N2CC(C#Cc3ccc4c(=O)c(-c5ccc(NS(C)(=O)=O)cc5)coc4c3)C2)CCC1` [tert-butyl 1-(3-((3-(4-(methylsulfonamido)-phenyl)-4-oxo-4H-chromen-7-yl)ethynyl)azetidine-1-carbonyl)-cyclobutylcarbamate], for which the IC50 in assay [1] is greater than 130000 nM; in assay [2] it was greater than 130000 nM; in assay [3], 6 nM.
As to `CS(=O)(=O)Nc1ccc(-c2coc3cc(C#CC4CCOCC4)ccc3c2=O)cc1` [N-(4-(4-oxo-7-((tetrahydro-2H-pyran-4-yl)ethynyl)-4H-chromen-3-yl)phenyl)methanesulfonamide], the IC50 in assay [1] is greater than 130000 nM; in assay [2], greater than 130000 nM; in assay [3] it was 43 nM.
As for `CS(=O)(=O)Nc1ccc(-c2coc3cc(C#CC4CNC4)ccc3c2=O)cc1` [N-(4-(7-(azetidin-3-ylethynyl)-4-oxo-4H-chromen-3-yl)phenyl)methanesulfonamide], the IC50 in assay [1] is greater than 130000 nM; in assay [2], greater than 94400 nM; in assay [3], 266 nM.
For the molecule `CS(=O)(=O)Nc1ccc(-c2coc3cc(C#Cc4ccccc4)ccc3c2=O)cc1` [N-(4-(4-oxo-7-(phenylethynyl)-4H-chromen-3-yl)phenyl)methanesulfonamide], the IC50 in assay [1] was greater than 13000 nM; in assay [2], greater than 13000 nM; in assay [3] it was 329 nM.
With `CS(=O)(=O)Nc1ccc(-c2coc3cc(C#CC4(O)CCCC4)ccc3c2=O)cc1` [N-(4-(7-((1-hydroxycyclopentyl)ethynyl)-4-oxo-4H-chromen-3-yl)phenyl)methanesulfonamide], the IC50 in assay [1] is greater than 130000 nM; in assay [2], greater than 130000 nM; in assay [3], 386 nM and 156 nM.
For `CC1(C(=O)N2CC(C#Cc3ccc4c(=O)c(-c5ccc(NS(C)(=O)=O)cc5)coc4c3)C2)COC1` [N-(4-(7-((1-(3-methyloxetane-3-carbonyl)azetidin-3-yl)ethynyl)-4-oxo-4H-chromen-3-yl)phenyl)methanesulfonamide], the results for the IC50 in assay [1], in assay [2] and in assay [3] were greater than 130000 nM, greater than 130000 nM and 6 nM, respectively.
On to `CS(=O)(=O)Nc1ccc(-c2coc3cc(C#Cc4cccnc4)ccc3c2=O)cc1` [N-(4-(4-oxo-7-(pyridin-3-ylethynyl)-4H-chromen-3-yl)phenyl)methanesulfonamide], for which the figures for the IC50 in assay [1], in assay [2] and in assay [3] were greater than 130000 nM, greater than 130000 nM and 21 nM, respectively.
Regarding `CN(C)CCC(=O)N1CC(C#Cc2ccc3c(=O)c(-c4ccc(NS(C)(=O)=O)cc4)coc3c2)C1` [N-(4-(7-((1-(3-(dimethylamino)propanoyl)azetidin-3-yl)ethynyl)-4-oxo-4H-chromen-3-yl)phenyl)methanesulfonamide], the results for the IC50 in assay [1], in assay [2] and in assay [3] were 46900 nM, greater than 130000 nM and 64 nM, respectively.
For the molecule `Cn1cnc(C#Cc2ccc3c(=O)c(-c4ccc(NS(C)(=O)=O)cc4)coc3c2)c1` [N-(4-(7-((1-methyl-1H-imidazol-4-yl)ethynyl)-4-oxo-4H-chromen-3-yl)phenyl)methanesulfonamide], the IC50 in assay [1] was greater than 86500 nM; in assay [2], greater than 130000 nM; in assay [3] it was 95 nM.
The corresponding values for `CC(C)(C)OC(=O)N1CC(C#Cc2ccc3c(=O)c(-c4ccc(NS(C)(=O)=O)cc4)coc3c2)C1` [tert-butyl 3-((3-(4-(methylsulfonamido)phenyl)-4-oxo-4H-chromen-7-yl)ethynyl)azetidine-1-carboxylate] are greater than 130000 nM, greater than 130000 nM and 9 nM.
On to `CN1CCC(C(=O)N2CC(C#Cc3ccc4c(=O)c(-c5ccc(NS(C)(=O)=O)cc5)coc4c3)C2)CC1` [N-(4-(7-((1-(1-methylpiperidine-4-carbonyl)azetidin-3-yl)ethynyl)-4-oxo-4H-chromen-3-yl)phenyl)methanesulfonamide], for which the values for the IC50 in assay [1], in assay [2] and in assay [3] were greater than 130000 nM, greater than 130000 nM and 35 nM, respectively.
